Blank lines part the entries; values can stand above or below the molecule they belong to.
Tests used:
[1] = system: MDA-MB-175VII cells (DOC4-NRG1 fusion); test: growth inhibitory effect in NRG1 fusion-driven cancer cell line (GI50); format: cell-based; details: Homo sapiens, mean of 3-4 independent experiments
Experimental: GI50 values were also determined for currently approved EGFR/HER2 tyrosine kinase inhibitors: afatinib, osimertinib, tucatinib, lapatinib, and neratinib, and one investigational drug (poziotinib). Mean values were determined from 3-4 independent experiments.

SK-BR-3 cells = test: feedback activation of HER3, downstream targets and apoptosis markers in SK-BR-3 cells; format: cell-based, human; details: for phosphorylation of HER2, HER3, and their downstream targets: 3 hours; for phosphorylation of HER2, HER3, and their downstream targets / BIM and cleaved PARP: 30 to 300 nmol/L; for phosphorylation of HER2, HER3, and their downstream targets (AKT and ERK) / BIM and cleaved PARP: 48 hours
Excerpt: The effect of Compound (1) on feedback activation of HER3, its downstream targets (ERK and AKT), and apoptosis markers (BIM and cleaved PARP) in SK-BR-3 cells was investigated. In addition, the same information for lapatinib and tucatinib (a reversible inhibitor of HER2) was obtained.

[2] = system: NCI-N87 human gastric carcinoma xenografts; test: antitumor effect in nude mice bearing NCI-N87 xenografts; format: in vivo; details: Day 15
Experimental: The antitumor effect of Compound (1) was evaluated in nude mice bearing HER2-overexpressing NCI-N87 human gastric carcinoma xenografts. Compound (1) dosing suspensions using 0.5% w/v hydroxypropyl methylcellulose (HPMC) as vehicle were prepared at 4 dose levels (3.1, 6.3, 12.5, and 25.0 mg/kg/day) and administered orally once daily for 14 days. In addition, the antitumor effect of poziotinib, which is a pan-ErbB inhibitor and currently under clinical development for the treatment of cancer with epidermal growth factor receptor containing HER2 exon 20 insertion mutations, was also evaluated using this model. Poziotinib was administered orally once daily for 14 days at 2 dose levels (0.5 or 1.0 mg/kg/day). The control group received 0.5% w/v HPMC once daily for 14 days.

[3] = system: MCF10A_HER2/insYVMA_v human mammary epithelial xenografts; test: antitumor effect in nude mice bearing MCF10A_HER2/insYVMA_v xenografts; format: in vivo; details: Day 15
Experimental: The antitumor effect of Compound (1) was evaluated in a nude mouse xenograft model of MCF10A_HER2/insYVMA_v. MCF10A_HER2/insYVMA_v was established as stably growing cells in vivo derived from MCF10A HER2/insYVMA (a human mammary epithelial cell line engineered to express the HER2 exon 20 insertion mutation A775_G776insYVMA) xenografts subcutaneously transplanted into nude mice. Compound (1) suspensions (using 0.5% w/v HPMC as vehicle) were administered orally once daily to mice at doses of 7.8, 12.5, or 20.0 mg/kg/day for 14 days. The control group received 0.5% weight per volume (w/v) hydroxypropyl methylcellulose (HPMC) solution orally once daily for 14 days.
In addition, the antitumor effect of poziotinib (an irreversible inhibitor of EGFR, HER2, and HER4) was also evaluated using this model.

[4] = system: intracranial NCI-N87-luc human gastric carcinoma xenografts; test: intracranial antitumor effect, NCI-N87-luc xenografts; format: in vivo, nude mice; details: Day 22
Experimental: The intracranial antitumor effect of Compound (1) was evaluated using Compound (1) in nude mice intracranially implanted with NCI-N87-luc cells, which were engineered to stably express the luciferase gene using the HER2-overexpressing NCI-N87 human gastric carcinoma cell line. Compound (1) dosing suspensions using 0.5% w/v HPMC as vehicle were prepared with Compound (1) at 3 dose levels (16.0, 20.0, or 25.0 mg/kg/day) and administered PO QD for 21 days. The control group received 0.5% weight per volume (w/v) hydroxypropyl methylcellulose (HPMC) solution orally once daily for 21 days. The antitumor effect of poziotinib was also evaluated using this model. Poziotinib was administered PO QD for 21 days at 2 dose levels (0.5 or 1.0 mg/kg/day).

[5] = system: NCI-N87 human gastric carcinoma (HER2 overexpressing) xenografts; test: refractory T-mab/P-mab model Step I; format: in vivo, male nude mice (BALB/cAJcl-mu/mu)
Experimental: Male nude mice (BALB/cAJcl-mu/mu) were implanted with NCI-N87 human gastric carcinoma (HER2 overexpressing); 1.0×10^7 cells in 100 μL of PBS were implanted subcutaneously per mouse.

[6] = system: NCI-N87 xenografts relapsed from T-DM1; details: 10 mg/kg/day iv Day 1
Experimental: Male nude mice (BALB/cAJ1-mu/mu) were implanted with NCI-N87 human gastric carcinoma (HER2 overexpressing); 1.0×10^7 cells in 100 μL of PBS were implanted subcutaneously per mouse.
PO; or treated with an oral suspension of Compound (1) once per day at a dosage of 25 mg/kg/day, PO. The tumor volumes (TV, mm^3) and body weights of the mice were recorded.

[7] = system: NCI-N87 tumor fragment #6, clone 3; test: refractory T-DM1 monoclonal cell line model, comparison to DS-8201a; format: in vivo, male mice; details: single iv dose of 10 mg/kg T-DM1
Experimental: The obtained cell line was implanted into BALB/cAJcl-mu/nu male mice (8.0×10^6 cells in 100 μL of PBS/mouse, subcutaneous) for the efficacy test.
The tumor volumes (TV, mm) and body weights of the mice were recorded.

[8] = Step I Day 22, 20 mg/kg/day (each) ip Days 1, 8, 15

Molecule: CCOc1cc2ncc(C#N)c(Nc3ccc(OCc4ccccn4)c(Cl)c3)c2cc1NC(=O)/C=C/CN(C)C [neratinib]
- GI50 [1]: 0.003 ± 0.0006 µM

Molecule: C=CC(=O)N1CCC(Oc2cc3c(Nc4ccc(Cl)c(Cl)c4F)ncnc3cc2OC)CC1 [poziotinib, reference compound]
- T/C ratio of the mean tumor volumes ([2]; 0.5 mg/kg/day orally once daily 14 days): 44.2%
- T/C ratio of the mean tumor volumes ([2]; 1.0 mg/kg/day orally once daily 14 days): 8.8%
- T/C ratio of the mean tumor volume ([3]; 0.5 mg/kg/day): 29.0%
- T/C ratio of the mean tumor volume ([3]; 1.0 mg/kg/day): 8.3%
- T/C ratio of the mean total flux ([4]; 0.5 mg/kg/day PO QD 21 days): 39.0%
- mean body weight change (BWC) ([4]; 0.5 mg/kg/day): 2.5%
- T/C ratio of the mean total flux ([4]; 1.0 mg/kg/day PO QD 21 days): 21.1%
- mean body weight change (BWC) ([4]; 1.0 mg/kg/day): −0.3%
- GI50 [1]: 0.0003 ± 0.0002 µM

Molecule: pertuzumab [P-mab]
- RTV (mean ± SE) ([5]; Day 22 to Day 0 (Step I), 20 mg/kg/day (each) ip Days 1, 8, 15): 4.0
- T/C ([5]; Step I Day 22, vs non-treatment control, 20 mg/kg/day (each) ip Days 1, 8, 15): 76.5%
- Number of Death [5, 8]: 0
- TV (mean ± SE) [5, 8]: 1233.1 mm^3
- BWC (mean ± SE) ([5]; mouse, in vivo, ip, 20 mg/kg/day): 10.20%

Molecule: trastuzumab emtansine [T-DM1]
- RTV (mean ± SE) ([6]; Day 22 to Day 1 (Step II)): 1.73
- TV (mean ± SE) ([6]; Step II Day 22): 595.1 mm^3
- T/C ([6]; Step II Day 22, reference group): 100.0%
- antitumor effect (tumor volume) [7]: failing to inhibit tumor growth

Now from value to molecule, other results behind:

- GI50 [1]: 0.0056 ± 0.0027 µM
Molecule: CN(C)C/C=C/C(=O)Nc1cc2c(Nc3ccc(F)c(Cl)c3)ncnc2cc1O[C@H]1CCOC1 [afatinib]

- GI50 [1]: 0.0895 ± 0.0395 µM
Molecule: CS(=O)(=O)CCNCc1ccc(-c2ccc3ncnc(Nc4ccc(OCc5cccc(F)c5)c(Cl)c4)c3c2)o1 [lapatinib]
- phosphorylation of HER2, HER3, and their downstream targets (SK-BR-3 cells): inhibited the phosphorylation
- phosphorylation of HER2, HER3, and their downstream targets (AKT and ERK) (SK-BR-3 cells): increased again
- BIM and cleaved PARP (SK-BR-3 cells): increased

- GI50 [1]: 0.0294 ± 0.0015 µM
Molecule: C=CC(=O)Nc1cc(Nc2nccc(-c3cn(C)c4ccccc34)n2)c(OC)cc1N(C)CCN(C)C [osimertinib]

- GI50 [1]: 0.0276 ± 0.0055 µM
Molecule: Cc1cc(Nc2ncnc3ccc(NC4=NC(C)(C)CO4)cc23)ccc1Oc1ccn2ncnc2c1 [tucatinib]
- phosphorylation of HER2, HER3, and their downstream targets (SK-BR-3 cells): inhibited the phosphorylation
- phosphorylation of HER2, HER3, and their downstream targets (AKT and ERK) (SK-BR-3 cells): increased again
- BIM and cleaved PARP (SK-BR-3 cells): increased

From patent publication US20240238300A1, “TREATMENT METHODS FOR SUBJECTS WITH CANCER HAVING AN ABERRATION IN EGFR AND/OR HER2” (TAIHO PHARMACEUTICAL CO., LTD., priority 2021, published 2024)
